Laboratory results: patent publication US20250090576A1, “METHODS FOR TREATING NONTUBERCULOUS MYCOBACTERIA DISEASES” (Microbion Corporation, priority 2022, published 2025)
Values after ≈ are worked out from the molar mass of the structure shown.

Experiments:
Type in all cases: cell-based
M. abscessus MABS2 = assay: MIC (Table 8); details: Mycobacteroides abscessus
M. abscessus MABS4 = assay: MIC (Table 8); details: Mycobacteroides abscessus
[1] = system: M. abscessus biofilm (six clinical isolates); assay: MBEC assay, summary over six clinical isolates; details: at high concentrations (amikacin, clarithromycin: apart from MABS4)
Source text: (§1) In this study the MBEC assay was followed as described in the Innovotech Procedural Manual, version 2.1 with minor modifications to assess the antibiofilm activity of the antimicrobial compounds under investigation. The MBEC value refers to the Minimum Biofilm Eradication Concentration of each antimicrobial for each strain. The MBEC value is defined as the minimum antibiotic concentration where the optical density (OD) value at recovery is less than 10% of the control OD value and there is no growth observed with visual examination of the wells.
(§2) Step 1: Inoculation. For resuscitation, all strains were streaked on TSA plates, except for the mycobacteria which were streaked on 7H10 media, from the frozen stocks, and grew overnight at 37° C. (Table 6). From the plate, one colony was picked for inoculation in organism specific medium (OSM) and grown in a shaker incubator at 37° C. at 225 RPM until mid-log phase (OD 0.2-0.8). At mid log phase the culture was diluted in OSM medium (Table 6) to an OD of 0.05. 150 μL of it were aliquoted in each corresponding well in a 96-well MBEC plate (inoculation plate). Subsequently, the MBEC plates were incubated static at 37° C. for the appropriate time for each species (Table 7). During incubation, biofilm formed on the pegs.
(§3) Step 2: Challenge. Following incubation, the peg lid with the biofilm was washed twice in PBS and placed on a second 96-well plate with 200 μl of antibiotic dilutions (challenge plate). The challenge plate was then incubated at 37° C. for 18 h to allow exposure of the biofilm to antibiotics.
Step 3: Recovery. […] The recovery of resistant cells was assessed by an end-point measurement of the optical density at 600 nm (OD600) for each well with a plate reader (FIG. 4).
This is possibly, in part, due to the variable clumping of the cells observed in the biofilm biomass on the pegs. The clumping of the cells also impacted the OD readings. […] For replicate experiments with variable results, the final MBEC values were determined based on the higher MBEC concentration observed among the replicates.

[2] = system: M. abscessus MABS2 biofilm; assay: MBEC assay (minimum biofilm eradication concentration); details: 18 h challenge
Source text: as §1, §2, §3
(§4) Step 3: Recovery. In the final step, the peg lid (with the biofilm after treatment with the antibiotics) was washed again twice in PBS and placed on a third 96-well plate (recovery plate) with 200 μl growth medium in each well to allow growth of any bacterial cells resistant to antibiotics at any concentration. The recovery of resistant cells was assessed by an end-point measurement of the optical density at 600 nm (OD600) for each well with a plate reader (FIG. 4).

[3] = system: M. abscessus MABS11 biofilm; assay: as above; details: 18 h challenge
Source text: as §1, §2, §3, §4

[4] = system: M. abscessus MABS4 biofilm; assay: as above; details: 18 h challenge
Source text: as §1, §2, §3, §4

[5] = system: M. abscessus MABS9 biofilm; assay: as above; details: 18 h challenge
Source text: as §1, §2, §3, §4

[6] = system: M. abscessus MABS7 biofilm; assay: as above; details: 18 h challenge
Source text: as §1, §2, §3, §4

[7] = system: M. abscessus MABS1 biofilm; assay: as above; details: 18 h challenge
Source text: as §1, §2, §3, §4

M. abscessus MABS7 = assay: MIC (Table 8); details: Mycobacteroides abscessus
M. abscessus MABS1 = assay: MIC (Table 8); details: Mycobacteroides abscessus
M. abscessus MABS11 = assay: MIC (Table 8); details: Mycobacteroides abscessus
M. abscessus MABS9 = assay: MIC (Table 8); details: Mycobacteroides abscessus
[8] = system: M. avium strain 104 (MAH 104) in THP-1 macrophages; assay: Mycobacterial survival (CFU) in infected THP-1 macrophages; details: 4-day and 7-day, drugs at MIC
Method: THP-1 macrophages were differentiated with 50 ng/ml PMA for 24 hours, followed by 24 hours in media prior to infection. Differentiated THP-1 macrophages were either infected with M. avium strains or M. abscessus strains for 1 hour with an multiplicity of infection (MOI) of 5 or uninfected. Cells were washed twice, followed by 1 hour of antibiotic treatment with 200 μg/ml of amikacin to remove extracellular bacteria. After the antibiotic step, cells were washed once more and BisEDT (BIZ) or amikacin was added once to selected wells (see in vitro doses below).
The treatments included: vehicle, amikacin, Soluble BisEDT (S Biz), Insoluble BisEDT (I Biz), and amikacin+BisEDT. The time points for sample preparation were 72 h for M. abscessus strains and 4- and 7-days post infection for M. avium strains. At the indicated timepoints cell media was removed and replaced with 400 ul of 0.1% triton x-100 in H2O for lysis. Wells were pipetted 25 times to disrupt cells then diluted and plated for CFU enumeration.

MIC (M. abscessus MABS2) [µg/mL]	MIC (M. abscessus MABS4) [µg/mL]	MIC (M. abscessus MABS7) [µg/mL]	MIC (M. abscessus MABS1) [µg/mL]	MIC (M. abscessus MABS11) [µg/mL]	MIC (M. abscessus MABS9) [µg/mL]	SMILES	biofilm susceptibility, in words [1]	MBEC [2] [µg/mL]	MBEC [3]	MBEC [4]	MBEC ([4]; listed as clarithromycin) [µg/mL]	MBEC [5] [µg/mL]	MBEC [6] [µg/mL]	MBEC [7] [µg/mL]	mycobacterial survival (CFU, bacterial load) in THP-1 macrophages, in words [8]
–	–	–	–	–	–	C1C[S][Bi]([S]CC[S][Bi]2[S]CC[S]2)[S]1 [BisEDT in DMSO]	–	–	–	–	–	–	–	–	bacteriostatic effect
8 (≈ 18.7 µM)	16 (≈ 37.4 µM)	16 (≈ 37.4 µM)	8 (≈ 18.7 µM)	16 (≈ 37.4 µM)	32 (≈ 74.9 µM)	CO[C@@]1(NC(=O)Cc2cccs2)C(=O)N2C(C(=O)O)=C(COC(N)=O)CS[C@@H]21 [Cefoxitin]	resistance	>128	>256 µg/mL	>128 µg/mL	–	>256	>128	>128	–
1 (≈ 3.34 µM)	8 (≈ 26.7 µM)	16 (≈ 53.4 µM)	8 (≈ 26.7 µM)	8 (≈ 26.7 µM)	16 (≈ 53.4 µM)	C[C@@H](O)[C@H]1C(=O)N2C(C(=O)O)=C(SCCN=CN)C[C@H]12 [Imipenem]	–	>16	>64 µg/mL	>64 µg/mL	–	>64	>64	>32	–

SMILES	MIC (M. abscessus MABS2) [µg/mL]	MIC (M. abscessus MABS4) [µg/mL]	MIC (M. abscessus MABS7) [µg/mL]	MIC (M. abscessus MABS1) [µg/mL]	MIC (M. abscessus MABS11) [µg/mL]	MIC (M. abscessus MABS9) [µg/mL]	biofilm susceptibility, in words [1]	MBEC [2] [µg/mL]	MBEC [3]	MBEC [4]	MBEC ([4]; listed as clarithromycin) [µg/mL]	MBEC [5] [µg/mL]	MBEC [6] [µg/mL]	MBEC [7] [µg/mL]	mycobacterial survival (CFU, bacterial load) in THP-1 macrophages, in words [8]
CC[C@H]1OC(=O)[C@H](C)[C@@H](O[C@H]2C[C@@](C)(OC)[C@@H](O)[C@H](C)O2)[C@H](C)[C@@H](O[C@@H]2O[C@H](C)C[C@H](N(C)C)[C@H]2O)[C@](C)(OC)C[C@@H](C)C(=O)[C@H](C)[C@@H](O)[C@]1(C)O [Clarithromycin]	4 (≈ 5.35 µM)	0.125 (≈ 0.167 µM)	0.5 (≈ 0.668 µM)	16 (≈ 21.4 µM)	2 (≈ 2.67 µM)	0.25 (≈ 0.334 µM)	resistance	>32	>=32 μg/mL	<=4 μg/mL	4	>8	>8	>32	–
